In the assay the test system is HepG2 (L1.3 5'UTR promoter firefly luciferase reporter). The experiment in a line: L1 promoter activity (FLuc/RLuc) relative to DMSO vehicle control (% of control); higher = stronger L1 promoter activation. As to the method: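 HepG2 cells in 96-well plates were cotransfected with pGL4.11-L1.3 5'UTR (firefly luciferase driven by the human L1.3 5'UTR promoter) and pGL4.74 (HSV-TK Renilla luciferase internal control), then treated with compound for 6 or 24 h. FLuc/RLuc ratio was normalised to the DMSO vehicle control (% of control); concentrations where RLuc fell below 50% of control were excluded (N.D.). Mean of at least two independent experiments in duplicate or quadruplicate.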

Where [1] appears, read: concentration (uM unless unit written): 25, treatment time: 6 h.
Setting [2] is: concentration (uM unless unit written): 25, treatment time: 24 h.
Setting [3] is: concentration (uM unless unit written): 50, treatment time: 6 h.
Setting [4] is: concentration (uM unless unit written): 50, treatment time: 24 h.
[5] abbreviates: concentration (uM unless unit written): 100, treatment time: 6 h.
The mark [6] stands for this setting: concentration (uM unless unit written): 100, treatment time: 24 h.
Setting [7] is: concentration (uM unless unit written): 250, treatment time: 6 h.
[8] abbreviates: concentration (uM unless unit written): 250, treatment time: 24 h.
Setting [9] is: concentration (uM unless unit written): 500, treatment time: 6 h.
[10] abbreviates: concentration (uM unless unit written): 500, treatment time: 24 h.
Setting [11] is: concentration (uM unless unit written): 1000, treatment time: 6 h.
The mark [12] stands for this setting: concentration (uM unless unit written): 1000, treatment time: 24 h.
[13] abbreviates: concentration (uM unless unit written): 1, treatment time: 6 h.
The mark [14] stands for this setting: concentration (uM unless unit written): 1, treatment time: 24 h.
[15] abbreviates: concentration (uM unless unit written): 5, treatment time: 6 h.
Setting [16] is: concentration (uM unless unit written): 10, treatment time: 6 h.
Where [17] appears, read: concentration (uM unless unit written): 10, treatment time: 24 h.
Where [18] appears, read: concentration (uM unless unit written): 20, treatment time: 6 h.
Setting [19] is: concentration (uM unless unit written): 20, treatment time: 24 h.
Setting [20] is: concentration (uM unless unit written): 200, treatment time: 6 h.
Setting [21] is: concentration (uM unless unit written): 200, treatment time: 24 h.
The mark [22] stands for this setting: concentration (uM unless unit written): 125, treatment time: 6 h.
Setting [23] is: concentration (uM unless unit written): 125, treatment time: 24 h.

Structures can show the parent of a compound that is named as a salt. ± gives the uncertainty stated by the source.

Consider `C=C[C@@]1(C)CC(=O)[C@]2(O)[C@@]3(C)[C@@H](O)CCC(C)(C)[C@@H]3[C@H](O)[C@H](OC(C)=O)[C@@]2(C)O1` [Forskolin], for which the L1 promoter activity runs as follows: under setting [1], 88.6 ± 4.5; under setting [2], 59.9 ± 9; under setting [3], 85.9 ± 4; under setting [4], 59 ± 6.1; under setting [5], 89.2 ± 7.9; under setting [6], 52 ± 4.8.
As for `NS(=O)(=O)c1cc(C(=O)O)c(NCc2ccco2)cc1Cl` [Furosemide], the L1 promoter activity by setting is: under setting [5], 104 ± 28; under setting [6], 103 ± 24; under setting [7], 97.3 ± 11; under setting [8], 96.2 ± 8.4; under setting [9], 96.9 ± 5.2; under setting [10], 91.2 ± 6.5. Moreover, the L1 promoter activity was 89.1 ± 16 under setting [11] and 60.4 ± 2.4 under setting [12].
Consider `Nc1nc2c(ncn2COC(CO)CO)c(=O)[nH]1` [Ganciclovir], for which the L1 promoter activity reads like this: under setting [9], 109 ± 17; under setting [10], 98.3 ± 6.1; under setting [11], 115 ± 16; under setting [12], 104 ± 11.
For the compound `COc1ccccc1OCC(O)CO` (stereo not drawn) [Guaiacol glyceryl ether], the L1 promoter activity turned out to be 123 ± 7.7 (concentration (uM unless unit written): 1250, treatment time: 6 h); 99.7 ± 7.2 (concentration (uM unless unit written): 1250, treatment time: 24 h); 136 ± 19 (concentration (uM unless unit written): 2500, treatment time: 6 h); 112 ± 19 (concentration (uM unless unit written): 2500, treatment time: 24 h); 149 ± 13 (concentration (uM unless unit written): 5000, treatment time: 6 h); 145 ± 15 (concentration (uM unless unit written): 5000, treatment time: 24 h).
Take `CC(C)Cc1ccc(C(C)C(=O)O)cc1` (stereo not drawn) [Ibuprofen]: the L1 promoter activity runs as follows: under setting [7], 118 ± 8.4; under setting [8], 90.8 ± 3.5; under setting [9], 99.7 ± 9.8; under setting [10], 89.6 ± 10; under setting [11], 97.2 ± 8.2; under setting [12], 74.9 ± 7.6.
Take `COc1ccc2c(c1)c(CC(=O)O)c(C)n2C(=O)c1ccc(Cl)cc1` [Indometacin]: the L1 promoter activity came to 99.1 ± 10 under setting [7]; 83 ± 11 under setting [8]; 92.6 ± 13 under setting [9]; 59.3 ± 6.8 under setting [10]; 67.2 ± 10 under setting [11].
With `NC(=O)CI` [Iodoacetamide], the L1 promoter activity by setting is: (concentration (uM unless unit written): 0.1, treatment time: 6 h) 97.4 ± 9; (concentration (uM unless unit written): 0.1, treatment time: 24 h) 103 ± 11; under setting [13], 101 ± 13; under setting [14], 106 ± 16; under setting [15], 117 ± 23; under setting [16], 130 ± 27.
Regarding `C[C@H](CCC(=O)O)C[C@H](C)C[C@H](C)C(=O)/C=C(\O)[C@H](C)C[C@H](C)C/C=C/[C@@H](C)[C@@H](O)[C@@H](C)[C@@H](O)C[C@@H]1CC[C@@](C)([C@H]2CC[C@@](C)([C@@H](C)O)O2)O1` [Ionomycin], the L1 promoter activity by setting is: under setting [15], 77.1 ± 5; (concentration (uM unless unit written): 5, treatment time: 24 h) 79.5 ± 15; under setting [16], 60 ± 14; under setting [17], 58.1 ± 11; under setting [18], 60.5 ± 11; under setting [19], 36.9 ± 6.4.
`CC(=O)N1CCN(c2ccc(OCC3COC(Cn4ccnc4)(c4ccc(Cl)cc4Cl)O3)cc2)CC1` (stereo not drawn) [Ketoconazol]: the L1 promoter activity runs as follows: under setting [16], 90.8 ± 12; under setting [17], 82.2 ± 16; under setting [18], 83.5 ± 11; under setting [19], 57.5 ± 15; (concentration (uM unless unit written): 40, treatment time: 6 h) 71.4 ± 9.3; (concentration (uM unless unit written): 40, treatment time: 24 h) 37.2 ± 4.2.
As for `CN1CCC(=C2c3ccccc3CC(=O)c3sccc32)CC1` [Ketotifen fumarate salt], the L1 promoter activity reads like this: under setting [3], 90.4 ± 6.5; under setting [4], 89.9 ± 4.6; under setting [5], 92.3 ± 7.8; under setting [6], 83.7 ± 8; under setting [20], 80.3 ± 4.5.
In the case of `O=C(O)c1nn(Cc2ccc(Cl)cc2Cl)c2ccccc12` [Lonidamine], the L1 promoter activity reads like this: under setting [3], 105 ± 12; under setting [4], 93 ± 8; under setting [5], 87.9 ± 6.3; under setting [6], 105 ± 9.1; under setting [20], 99.9 ± 25; under setting [21], 91.6 ± 9.5.
`CCCCc1nc(Cl)c(CO)n1Cc1ccc(-c2ccccc2-c2nnn[nH]2)cc1` [Losartan]: the L1 promoter activity by setting is: (concentration (uM unless unit written): 15.625, treatment time: 6 h) 93.6 ± 6.2; (concentration (uM unless unit written): 15.625, treatment time: 24 h) 92.6 ± 10; (concentration (uM unless unit written): 31.25, treatment time: 6 h) 106 ± 7.8; (concentration (uM unless unit written): 31.25, treatment time: 24 h) 102 ± 10; (concentration (uM unless unit written): 62.5, treatment time: 6 h) 109 ± 8.7; (concentration (uM unless unit written): 62.5, treatment time: 24 h) 98.6 ± 11. Besides, the L1 promoter activity reads like this: under setting [22], 101 ± 10; under setting [23], 95.1 ± 7.4.
In turn, `Cc1cccc(Nc2ccccc2C(=O)O)c1C` [Mefenamic acid] gave an L1 promoter activity under setting [3] of 128 ± 8.3, an L1 promoter activity under setting [4] of 91 ± 5.5, an L1 promoter activity under setting [9] of 113 ± 19 and an L1 promoter activity under setting [11] of 93.8 ± 13.
For the compound `CC1=CC(=O)c2ccccc2C1=O` [Menadione], the L1 promoter activity (concentration (uM unless unit written): 17.5, treatment time: 6 h) amounted to 116 ± 11.
For `O=C1NC(=S)NC(=O)C1C(=O)Nc1ccccc1` [Merbarone], the L1 promoter activity turned out to be 112 ± 12 under setting [13]; 113 ± 13 under setting [14]; 140 ± 17 under setting [16]; 147 ± 17 under setting [17]; 171 ± 27 under setting [3]; 219 ± 30 under setting [4]. Further, the L1 promoter activity came out at 182 ± 16 under setting [5] and 198 ± 32 under setting [6].
With `CN(C)CCN(Cc1cccs1)c1ccccn1` [Methapyrilene], the L1 promoter activity was 97.7 ± 2.8 under setting [7], 101 ± 25 under setting [8], 86.6 ± 8.4 under setting [9] and 72.8 ± 12 under setting [11].
`CN(Cc1cnc2nc(N)nc(N)c2n1)c1ccc(C(=O)N[C@@H](CCC(=O)O)C(=O)O)cc1` [Methotrexate]: the L1 promoter activity under setting [16] came out at 86.8 ± 9.6; the L1 promoter activity under setting [17] came to 112 ± 36; the L1 promoter activity under setting [5] was found to be 93.4 ± 13; the L1 promoter activity under setting [6] came out at 108 ± 48; the L1 promoter activity under setting [20] amounted to 93.6 ± 12; the L1 promoter activity under setting [21] worked out at 142 ± 41.
Consider `COS(C)(=O)=O` [Methyl methanesulfonate], for which the L1 promoter activity by setting is: under setting [22], 113 ± 11; under setting [23], 90.8 ± 4.2; under setting [7], 107 ± 15; under setting [8], 88.2 ± 13; under setting [9], 100 ± 12; under setting [10], 83.2 ± 4.5.
For the compound `C[C@]12CCC(=O)C=C1CC[C@@H]1[C@@H]2CC[C@@]2(C)[C@H]1CC[C@]2(C)O` [Methyltestosterone], the L1 promoter activity under setting [1] amounted to 94.7 ± 15; the L1 promoter activity under setting [2] was found to be 73.9 ± 15; the L1 promoter activity under setting [3] was found to be 108 ± 4.4; the L1 promoter activity under setting [4] came out at 74.5 ± 14; the L1 promoter activity under setting [5] amounted to 98.5 ± 14; the L1 promoter activity under setting [6] was 85.3 ± 3.9.
Consider `CC(C)(C(=O)c1cccnc1)c1cccnc1` [Metyrapone], for which the L1 promoter activity reads like this: under setting [22], 121 ± 7.4; under setting [23], 111 ± 11; under setting [7], 142 ± 18; under setting [8], 121 ± 11; under setting [9], 127 ± 3.5; under setting [10], 135 ± 14.
As to `CC[C@H](C)C(=O)O[C@H]1CCC=C2C=C[C@H](C)[C@H](CC[C@@H]3C[C@@H](O)CC(=O)O3)[C@H]21` [Mevastatin], the L1 promoter activity turned out to be 114 ± 22 under setting [13]; 118 ± 31 under setting [14]; 101 ± 24 (concentration (uM unless unit written): 3, treatment time: 6 h); 105 ± 12 (concentration (uM unless unit written): 3, treatment time: 24 h); 123 ± 43 (concentration (uM unless unit written): 6, treatment time: 6 h); 103 ± 18 (concentration (uM unless unit written): 6, treatment time: 24 h).
`CO[C@@]12[C@H](COC(N)=O)C3=C(C(=O)C(C)=C(N)C3=O)N1C[C@@H]1N[C@@H]12` [Mitomycin C]: the L1 promoter activity by setting is: (concentration (uM unless unit written): 2.5, treatment time: 6 h) 119 ± 25; (concentration (uM unless unit written): 2.5, treatment time: 24 h) 131 ± 10; under setting [16], 96.4 ± 11; under setting [17], 114 ± 25.
